# Laboratory results taken from ChEMBL document CHEMBL1201862, “PubChem BioAssay data set” (2004).
#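 Cells were grown in 96-well plates and exposed to each compound for 48 hours at five concentrations; endpoints were interpolated linearly between bracketing concentrations, or set to the highest concentration if not reached. Here, GI50 denotes the concentration required for 50% inhibition of growth.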 Active and inactive are the calls of the source. Cut-off read from the data, not from the text of the source: active = GI50 up to about 1.1 µM and inactive = higher.
# Legend:
# Test in all cases: NCI tumour cell line growth inhibition, 48 h
# MOLT-4 = tested on: MOLT-4
# SW-620 = tested on: SW-620
# NCI-H23 = tested on: NCI-H23
# NCI-H460 = tested on: NCI-H460
# SF-295 = tested on: SF-295
# T47D = tested on: T47D
# M14 = tested on: M14
# OVCAR-4 = tested on: OVCAR-4
# SN12C = tested on: SN12C
# LOX IMVI = tested on: LOX IMVI
# SK-MEL-28 = tested on: SK-MEL-28
# HCT-116 = tested on: HCT-116
# SF-539 = tested on: SF-539
# CAKI-1 = tested on: CAKI-1
# SK-OV-3 = tested on: SK-OV-3
# U-251 = tested on: U-251
# MDA-MB-435 = tested on: MDA-MB-435
# HCC 2998 = tested on: HCC 2998
# MDA-N = tested on: MDA-N
SMILES,GI50 (MOLT-4),GI50 (SW-620),GI50 (NCI-H23),GI50 (NCI-H460),GI50 (SF-295),GI50 (T47D),GI50 (M14),GI50 (OVCAR-4),GI50 (SN12C),GI50 (LOX IMVI),GI50 (SK-MEL-28),GI50 (HCT-116),GI50 (SF-539),GI50 (CAKI-1),GI50 (SK-OV-3),GI50 (U-251),GI50 (MDA-MB-435),GI50 (HCC 2998),GI50 (MDA-N)
CCNCCC1(CC)C(=O)NC(=O)NC1=O,> 100 µM (inactive),> 100 µM (inactive),> 100 µM (inactive),> 100 µM (inactive),> 100 µM (inactive),> 100 µM (inactive),> 100 µM (inactive),> 100 µM (inactive),> 100 µM (inactive),> 100 µM (inactive),> 100 µM (inactive),> 100 µM (inactive),> 100 µM (inactive),> 100 µM (inactive),> 100 µM (inactive),> 100 µM (inactive),> 100 µM (inactive),–,–
N#Cc1cc2c(cc1Cl)Sc1nnc(Nc3ccccc3)n1S2(=O)=O,2.02 µM (inactive),1.52 µM (inactive),1.62 µM (inactive),2.71 µM (inactive),3 µM (inactive),2.29 µM (inactive),2.17 µM (inactive),2.68 µM (inactive),1.71 µM (inactive),1.73 µM (inactive),2.26 µM (inactive),2.04 µM (inactive),2.07 µM (inactive),1.72 µM (inactive),5.04 µM (inactive),1.87 µM (inactive),2.08 µM (inactive),1.55 µM (inactive),–
CN(C)CC(CN(C)C)c1ccccn1,> 100 µM (inactive),> 100 µM (inactive),> 100 µM (inactive),> 100 µM (inactive),> 100 µM (inactive),–,> 100 µM (inactive),> 100 µM (inactive),> 100 µM (inactive),> 100 µM (inactive),> 100 µM (inactive),> 100 µM (inactive),> 100 µM (inactive),> 100 µM (inactive),> 100 µM (inactive),> 100 µM (inactive),> 100 µM (inactive),–,> 100 µM (inactive)
O=C1Cc2cc3ccccc3nc2-c2ccccc2N1,> 100 µM (inactive),> 100 µM (inactive),> 100 µM (inactive),63.7 µM (inactive),85.5 µM (inactive),38.5 µM (inactive),> 100 µM (inactive),45.6 µM (inactive),> 100 µM (inactive),38.6 µM (inactive),> 100 µM (inactive),23.9 µM (inactive),69.7 µM (inactive),32.7 µM (inactive),38 µM (inactive),60 µM (inactive),> 100 µM (inactive),31.4 µM (inactive),–
C/C=C\C(CC(=O)NCCC1CN(S(=O)(=O)C(F)(F)F)c2ccccc21)CC(=O)OC (stereo not drawn),29.6 µM (inactive),55.8 µM (inactive),34.7 µM (inactive),35.6 µM (inactive),42.4 µM (inactive),–,36.5 µM (inactive),63.5 µM (inactive),–,–,43.3 µM (inactive),31.3 µM (inactive),–,56.6 µM (inactive),64.3 µM (inactive),59.3 µM (inactive),> 10 µM (inactive),53.3 µM (inactive),40 µM (inactive)
Cc1cc([C@H](C#N)c2nc3ccccc3[nH]2)nc(Cl)n1,> 100 µM (inactive),24.2 µM (inactive),30.1 µM (inactive),24.5 µM (inactive),> 100 µM (inactive),21.3 µM (inactive),–,40.4 µM (inactive),51.2 µM (inactive),38.8 µM (inactive),39.1 µM (inactive),37.8 µM (inactive),61.9 µM (inactive),98.4 µM (inactive),> 100 µM (inactive),23.6 µM (inactive),30.4 µM (inactive),20.3 µM (inactive),–
COc1cc(C2c3cc(O)c(OC)cc3C3OCC2C3CO)ccc1O (stereo not drawn),> 100 µM (inactive),> 100 µM (inactive),> 100 µM (inactive),> 100 µM (inactive),> 100 µM (inactive),> 100 µM (inactive),> 100 µM (inactive),> 100 µM (inactive),–,> 100 µM (inactive),> 100 µM (inactive),76.9 µM (inactive),> 100 µM (inactive),> 100 µM (inactive),> 100 µM (inactive),> 100 µM (inactive),> 100 µM (inactive),> 100 µM (inactive),–
CCOC(=O)/C=C1\c2ccccc2C(=O)N1CC(=O)OCC,> 100 µM (inactive),> 100 µM (inactive),> 100 µM (inactive),–,> 100 µM (inactive),> 100 µM (inactive),> 100 µM (inactive),> 100 µM (inactive),> 100 µM (inactive),75.5 µM (inactive),> 100 µM (inactive),> 100 µM (inactive),–,> 100 µM (inactive),> 100 µM (inactive),> 100 µM (inactive),> 100 µM (inactive),–,> 100 µM (inactive)
N=C(c1ccc(-c2cn3cc(C(=N)N4CCCC4)ccc3n2)cc1)N1CCCC1,> 100 µM (inactive),> 100 µM (inactive),> 100 µM (inactive),–,> 100 µM (inactive),> 100 µM (inactive),> 100 µM (inactive),> 100 µM (inactive),> 100 µM (inactive),> 100 µM (inactive),> 100 µM (inactive),> 100 µM (inactive),–,> 100 µM (inactive),> 100 µM (inactive),> 100 µM (inactive),> 100 µM (inactive),–,> 100 µM (inactive)
Cc1oc2nc(N(C)C)nc(NN)c2c1C,> 100 µM (inactive),> 100 µM (inactive),> 100 µM (inactive),> 100 µM (inactive),> 100 µM (inactive),> 100 µM (inactive),> 100 µM (inactive),> 100 µM (inactive),> 100 µM (inactive),–,> 100 µM (inactive),> 100 µM (inactive),> 100 µM (inactive),> 100 µM (inactive),–,> 100 µM (inactive),> 100 µM (inactive),> 100 µM (inactive),–
S=C(Nc1ccccc1)Nc1ccccc1SC(/C=C/NNC1=NN=C(c2ccccc2)C(c2ccccc2)N1)c1ccccc1 (stereo not drawn),13.4 µM (inactive),> 100 µM (inactive),–,> 100 µM (inactive),69.3 µM (inactive),–,> 100 µM (inactive),5.68 µM (inactive),> 100 µM (inactive),> 100 µM (inactive),> 100 µM (inactive),> 100 µM (inactive),83.9 µM (inactive),> 100 µM (inactive),> 100 µM (inactive),> 100 µM (inactive),–,26.4 µM (inactive),–
CNCCCn1c2ccccc2c2c3c(c(-c4ccsc4)cc21)C(=O)NC3=O,1.54 µM (inactive),1.36 µM (inactive),0.0822 µM (active),1.35 µM (inactive),0.0953 µM (active),2.09 µM (inactive),0.0408 µM (active),1.59 µM (inactive),1.29 µM (inactive),1.33 µM (inactive),1.78 µM (inactive),1.4 µM (inactive),0.0281 µM (active),0.519 µM (active),1.19 µM (inactive),1.95 µM (inactive),1.12 µM (active),2.67 µM (inactive),–
C=CCc1cccc2cc(C(=O)Nc3ccccn3)c(=N)oc12,> 100 µM (inactive),> 100 µM (inactive),> 100 µM (inactive),> 100 µM (inactive),–,55.5 µM (inactive),> 100 µM (inactive),> 100 µM (inactive),> 100 µM (inactive),> 100 µM (inactive),> 100 µM (inactive),56.6 µM (inactive),92.5 µM (inactive),> 100 µM (inactive),> 100 µM (inactive),> 100 µM (inactive),> 100 µM (inactive),> 100 µM (inactive),–
Cc1ccc(-c2nc3c(C(=O)NCCN(C)C)cccc3[nH]2)cc1,3.51 µM (inactive),6.27 µM (inactive),15 µM (inactive),4.89 µM (inactive),16.7 µM (inactive),–,15.8 µM (inactive),22.9 µM (inactive),11.5 µM (inactive),11.1 µM (inactive),18.4 µM (inactive),5.06 µM (inactive),9.12 µM (inactive),23.5 µM (inactive),14.5 µM (inactive),18.3 µM (inactive),–,14.3 µM (inactive),–
Cc1c(O)c(OC2OC(CO)C(O)C(O)C2O)cc2c1CC[C@@H]1C2(C)C(=O)C[C@]2(C)[C@@H]([C@@](C)(O)C3CCC(C)(C)O3)[C@H](O)C[C@@]12C (stereo partly drawn),> 100 µM (inactive),> 100 µM (inactive),> 100 µM (inactive),> 100 µM (inactive),> 100 µM (inactive),> 100 µM (inactive),> 100 µM (inactive),> 100 µM (inactive),> 100 µM (inactive),> 100 µM (inactive),> 100 µM (inactive),> 100 µM (inactive),> 100 µM (inactive),> 100 µM (inactive),> 100 µM (inactive),> 100 µM (inactive),> 100 µM (inactive),> 100 µM (inactive),–
O=C1OC2(c3ccccc31)c1cc(I)c(O)c(I)c1Oc1c2cc(I)c(O)c1I [ERYTHROSINE],> 100 µM (inactive),> 100 µM (inactive),70 µM (inactive),> 100 µM (inactive),> 100 µM (inactive),> 100 µM (inactive),68.2 µM (inactive),> 100 µM (inactive),> 100 µM (inactive),76.6 µM (inactive),> 100 µM (inactive),72.4 µM (inactive),> 100 µM (inactive),14.6 µM (inactive),> 100 µM (inactive),92.3 µM (inactive),> 100 µM (inactive),–,–
